Results from patent US10160755B2 (Plexxikon Inc., priority 2015, dated 2018).
Where a chain is given by its changes, count along the chain named.

How the values were obtained:
FLT3-D835Y = target: T1, FLT3-D835Y (Homo sapiens, UniProt P36888, D835Y); assay: FLT3-D835Y biochemical kinase assay (AlphaScreen)
T1 construct: purchased Invitrogen PV3967
T1 sequence (P36888 27-993 D835Y): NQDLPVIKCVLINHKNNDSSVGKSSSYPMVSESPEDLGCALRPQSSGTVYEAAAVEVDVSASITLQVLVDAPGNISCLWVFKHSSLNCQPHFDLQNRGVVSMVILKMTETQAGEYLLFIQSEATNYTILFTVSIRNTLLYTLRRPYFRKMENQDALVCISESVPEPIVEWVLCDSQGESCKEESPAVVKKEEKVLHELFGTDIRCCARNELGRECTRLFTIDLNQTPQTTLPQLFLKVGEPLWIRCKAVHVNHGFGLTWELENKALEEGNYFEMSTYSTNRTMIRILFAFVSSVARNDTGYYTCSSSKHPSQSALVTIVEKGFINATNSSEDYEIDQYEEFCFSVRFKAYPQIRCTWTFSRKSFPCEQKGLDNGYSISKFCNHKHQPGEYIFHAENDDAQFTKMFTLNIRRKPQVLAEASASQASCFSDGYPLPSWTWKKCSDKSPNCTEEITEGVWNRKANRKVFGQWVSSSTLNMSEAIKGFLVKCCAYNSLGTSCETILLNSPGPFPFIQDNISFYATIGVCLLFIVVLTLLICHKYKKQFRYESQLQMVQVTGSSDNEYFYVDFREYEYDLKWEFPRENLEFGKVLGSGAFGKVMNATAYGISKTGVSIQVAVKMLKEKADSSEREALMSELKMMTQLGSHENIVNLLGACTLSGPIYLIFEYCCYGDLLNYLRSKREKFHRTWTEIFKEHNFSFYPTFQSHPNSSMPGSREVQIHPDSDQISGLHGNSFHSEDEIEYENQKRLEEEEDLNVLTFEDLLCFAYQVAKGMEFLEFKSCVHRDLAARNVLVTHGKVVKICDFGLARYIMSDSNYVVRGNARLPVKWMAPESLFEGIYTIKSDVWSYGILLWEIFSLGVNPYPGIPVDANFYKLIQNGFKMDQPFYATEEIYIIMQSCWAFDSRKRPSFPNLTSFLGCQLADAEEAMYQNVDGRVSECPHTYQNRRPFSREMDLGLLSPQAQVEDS
Outline: (§1)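 Compounds were tested against recombinant enzyme using AlphaScreen detection of tyrosine-phosphorylated biotin-poly(Glu4-Tyr) (30 nM final). The ATP concentration differed by construct: 10 μM for D835Y, 100 μM for ITD.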

[1] = target: T2, BA/F3-FLT3-ITD + F691L cells (Homo sapiens, UniProt P36888, F691L, cells depend on it, form not given); assay: BA/F3-FLT3-ITD + F691L cell proliferation assay (CellTiter-Glo); assay type: cell-based, murine; conditions: BaF3 FLT3 ITD/F691L cells; read-out: Cell Activity (IC50 μM) BaF3_FLT3_ITD/F691L
T2 sequence (P36888 1-993 F691L): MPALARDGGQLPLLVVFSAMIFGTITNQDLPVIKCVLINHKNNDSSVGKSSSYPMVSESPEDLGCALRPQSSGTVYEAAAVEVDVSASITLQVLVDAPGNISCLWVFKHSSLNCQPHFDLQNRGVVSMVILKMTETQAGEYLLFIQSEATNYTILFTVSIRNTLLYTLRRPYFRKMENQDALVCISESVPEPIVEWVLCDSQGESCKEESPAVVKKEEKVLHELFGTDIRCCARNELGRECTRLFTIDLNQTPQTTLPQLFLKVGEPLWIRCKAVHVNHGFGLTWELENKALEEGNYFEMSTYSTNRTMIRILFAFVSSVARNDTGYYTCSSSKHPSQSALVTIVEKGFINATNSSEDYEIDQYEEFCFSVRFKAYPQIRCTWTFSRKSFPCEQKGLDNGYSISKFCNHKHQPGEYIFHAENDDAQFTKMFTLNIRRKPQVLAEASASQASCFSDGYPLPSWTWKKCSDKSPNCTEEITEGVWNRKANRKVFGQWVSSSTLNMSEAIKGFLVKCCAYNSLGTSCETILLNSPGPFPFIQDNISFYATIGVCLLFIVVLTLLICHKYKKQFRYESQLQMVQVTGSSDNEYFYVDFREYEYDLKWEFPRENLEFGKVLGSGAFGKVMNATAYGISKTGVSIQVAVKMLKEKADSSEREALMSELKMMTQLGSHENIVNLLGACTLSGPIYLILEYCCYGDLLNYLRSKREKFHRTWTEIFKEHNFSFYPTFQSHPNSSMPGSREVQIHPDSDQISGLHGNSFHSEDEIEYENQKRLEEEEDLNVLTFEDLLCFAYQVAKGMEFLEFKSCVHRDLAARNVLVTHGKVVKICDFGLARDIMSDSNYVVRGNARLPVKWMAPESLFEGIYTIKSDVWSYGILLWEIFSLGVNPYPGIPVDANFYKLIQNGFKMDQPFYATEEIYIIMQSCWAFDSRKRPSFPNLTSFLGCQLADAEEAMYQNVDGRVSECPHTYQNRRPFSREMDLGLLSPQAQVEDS
Source text: The FLT3 inhibitors may also be assessed using leukemia cell lines that express endogenous FLT3-ITD or cells that are engineered to express wild-type or mutant FLT3. The cells expressing endogenous FLT3 are dependent upon FLT3 catalytic activity for growth. For the engineered cells, murine BA/F3 cells were transfected with full-length FLT3 (either wild-type, or containing the ITD, D835Y, or F691L mutations, as noted). The parental BA/F3 cells are dependent upon Interleukin-3 (IL-3) for survival, and introduction of the FLT3 constructs renders these cells dependent upon FLT3 kinase activity when cultured in the absence of IL-3. Engineered BA/F3 cell growth assays can be performed in either the absence or presence of IL-3, to assess the compound inhibition of FLT3 or to detect the presence of off-target activity, respectively. Inhibitors of FLT3 kinase activity reduce or eliminate the FLT3 oncogenic signaling, resulting in reduced cell proliferation. This inhibition is measured as a function of compound concentration to assess IC50 values.
Cells were seeded at 1×10^4 cells per well of a 96 well cell culture plate in 50 μl of cell culture medium. Compounds were dissolved in DMSO, typically at a concentration of 5 mM and were serially diluted 1:3 for a total of eight points and added to the cells to final concentrations of 10, 3.3, 1.1, 0.37, 0.12, 0.041, 0.014 and 0.0046 μM in 100 μl cell culture medium (final concentration 0.2% DMSO). […] The cells were incubated at 37° C., 5% CO2 for three days. CellTiter-Glo Buffer (Promega Cell Viability Assay catalog #G7573) and substrate were equilibrated to room temperature, and enzyme/substrate Recombinant Firefly Luciferase/Beetle Luciferin was reconstituted. The cell plates were equilibrated to room temperature for 30 minutes, then lysed by addition of an equivalent volume of the Celltiter-Glo Reagent. The plate was mixed for 10 minutes on a plate shaker to lyse the cells. The plates were read on a Tecan M1000 using Luminescence protocol modified to read 0.1 s per well. The luminescence reading assesses the ATP content, which correlates directly with cell number such that the reading as a function of compound concentration was used to determine the IC50 value.

FLT3-ITD = target: T3, FLT3-ITD (Homo sapiens, UniProt P36888); assay: FLT3-ITD biochemical kinase assay (AlphaScreen)
T3 construct: FLT3-ITD; Invitrogen #PV6190
T3 sequence (P36888 1-993): T2 sequence (P36888 1-993 F691L) with L691F
Outline: as §1

| Compound | IC50 (FLT3-D835Y) [µM] | GI50 [1] [µM] | IC50 (FLT3-ITD) [µM] |
| --- | --- | --- | --- |
| COc1cnc2[nH]cc(-c3ccc4ncn(-c5ccc(F)c(Cl)c5)c4c3)c2c1 [P-109, 1-(3-chloro-4-fluoro-phenyl)-6-(5-methoxy-1H-pyrrolo[2,3-b]pyridin-3-yl)benzimidazole] | 0.0001 to 1 | 0.0001 to 1 | – |
| CN1CCN(c2ccc(-c3cnc4[nH]cc(-c5ccc6ncn(C(C)(C)C)c6c5)c4n3)cn2)CC1 [P-333, 7-(3-tert-butylbenzimidazol-5-yl)-2-[6-(4-methylpiperazin-1-yl)-3-pyridyl]-5H-pyrrolo[2,3-b]pyrazine] | – | 0.0001 to 1 | 0.0001 to 1 |
| Cn1cnc2ccc(-c3c[nH]c4ncc(C(=O)Nc5cccc(F)c5)cc34)cc21 [P-177, N-(3-fluorophenyl)-3-(3-methylbenzimidazol-5-yl)-1H-pyrrolo[2,3-b]pyridine-5-carboxamide] | 0.0001 to 1 | 0.0001 to 1 | – |
| CC(C)(C)n1cnc2ccc(-c3c[nH]c4ncc(-c5cccc(N6CCNCC6)c5)nc34)cc21 [P-302, 7-(3-tert-butylbenzimidazol-5-yl)-2-(3-piperazin-1-ylphenyl)-5H-pyrrolo[2,3-b]pyrazine] | 0.0001 to 1 | 0.0001 to 1 | – |
| CC(C)(C)n1cnc2ccc(-c3c[nH]c4ncc(-c5ccc(N6CCOCC6)cc5)cc34)cc21 [P-299, 4-[4-[3-(3-tert-butylbenzimidazol-5-yl)-1H-pyrrolo[2,3-b]pyridin-5-yl]phenyl]morpholine] | 0.0001 to 1 | 0.0001 to 1 | – |
| COc1cc(-c2cnc3[nH]cc(-c4ccc5ncn(C)c5c4)c3n2)cc(OC)n1 [P-157, 2-(2,6-dimethoxy-4-pyridyl)-7-(3-methylbenzimidazol-5-yl)-5H-pyrrolo[2,3-b]pyrazine] | 0.0001 to 1 | – | 0.0001 to 1 |
| CCS(=O)(=O)Nc1cccc(-c2cnc3[nH]cc(-c4ccc5ncsc5c4)c3n2)c1 [P-169, N-[3-[7-(1,3-benzothiazol-6-yl)-5H-pyrrolo[2,3-b]pyrazin-2-yl]phenyl]ethanesulfonamide] | 0.0001 to 1 | – | 0.0001 to 1 |

Continued, values first:

| IC50 (FLT3-D835Y) [µM] | GI50 [1] [µM] | IC50 (FLT3-ITD) [µM] | Compound |
| --- | --- | --- | --- |
| 0.0001 to 1 | 0.0001 to 1 | – | N#Cc1cc(-c2cnc3[nH]cc(-c4ccc5ncn(C6CCCNC6)c5c4)c3n2)ccn1 (centres unmarked) [P-304, 4-[7-[3-(3-piperidyl)benzimidazol-5-yl]-5H-pyrrolo[2,3-b]pyrazin-2-yl]pyridine-2-carbonitrile] |
| 0.0001 to 1 | 0.0001 to 1 | – | c1cc(N2CCOCC2)ccc1-c1cnc2[nH]cc(-c3ccc4ncn(C5CCCNC5)c4c3)c2c1 (centres unmarked) [P-300, 4-[4-[3-[3-(3-piperidyl)benzimidazol-5-yl]-1H-pyrrolo[2,3-b]pyridin-5-yl]phenyl]morpholine] |
| 0.0001 to 1 | 0.0001 to 1 | – | CC(C)(C)n1cnc2ccc(-c3c[nH]c4ncc(-c5ccnc(N6CCNCC6)c5)nc34)cc21 [P-307, 7-(3-tert-butylbenzimidazol-5-yl)-2-(2-piperazin-1-yl-4-pyridyl)-5H-pyrrolo[2,3-b]pyrazine] |
| 0.0001 to 1 | 0.0001 to 1 | – | c1cc(-c2cnc3[nH]cc(-c4ccc5ncn(C6CCCNC6)c5c4)c3n2)cc(N2CCNCC2)n1 (centres unmarked) [P-308, 2-(2-piperazin-1-yl-4-pyridyl)-7-[3-(3-piperidyl)benzimidazol-5-yl]-5H-pyrrolo[2,3-b]pyrazine] |
| 0.0001 to 1 | 0.0001 to 1 | – | c1cc(-c2cnc3[nH]cc(-c4ccc5ncn(C6CCCNC6)c5c4)c3n2)cc(N2CCOCC2)c1 (centres unmarked) [P-303, 4-[3-[7-[3-(3-piperidyl)benzimidazol-5-yl]-5H-pyrrolo[2,3-b]pyrazin-2-yl]phenyl]morpholine] |
| 0.0001 to 1 | – | 0.0001 to 1 | COc1cc(-c2cnc3[nH]cc(-c4ccc5ncn(C6CCCNC6)c5c4)c3c2)cc(OC)n1 (centres unmarked) [P-197, 5-(2,6-dimethoxy-4-pyridyl)-3-[3-(3-piperidyl)benzimidazol-5-yl]-1H-pyrrolo[2,3-b]pyridine] |
